Here are results for 1 compound from patent publication US20250352518A1, “A BENZIMIDAZOLE COMPOUND WITH ANTIHELMINTHIC ACTIVITY FOR USE IN REVERSING, ARRESTING OR SLOWING DOWN CELLULAR AGEING IN A VERTEBRATE SUBJECT” (RAVAN BIO LIMITED, priority 2022, published 2025).

SMILES strings stand for the structures.

One assay has as its system NHEK cells. The assay is described as follows: Population doublings and telomere loss per population doubling of drug-treated NHEK's (qPCR). As to conditions: passage 10 and 11 NHEK's, versus DMSO control, FIG. 8b. Format: cell-based, human.
Assay [1] deals with post-confluent NHEK cells. The assay is described as follows: Growth of re-cultured post-confluent (cell-cell contact growth arrested) NHEK's. Format: cell-based, human. Conditions: for concentration causing optimal cell growth: post-confluent NHEK. The source says:
Neonatal human epidermal foreskin keratinocytes (NHEKs) were used to test the ability of compounds to reverse, arrest or slow down cellular ageing. These cells typically undergo approximately 35 cell divisions before the Hayflick limit is reached but they can be induced to undergo premature senescence and, what has been understood to be, irreversible growth arrest earlier than this by induction of cell-cell contact growth inhibition when cultured at high cell density/to confluence (Poumay & Pittelkow 1995 J Inv Dermatol 104, p 271-276). The inventors were thus inspired to culture post-confluent cells and assess the effect of test compounds on the growth, telomere loss and secretion of inflammatory factors by such cells. An experimental schematic is provided as FIG. 1. 1.1 Culture of Early Passage NHEK's in the Presence and Absence of y27632 Pooled donor neonatal NHEK's (Cat No C-12005, Lot No 456Z001.1, PromoCell GmBH), serum-free PromoCell Keratinocyte Growth Medium 2 (KSFM, Cat No C20011. Lot No 472M197), CaCl2) (Lot No 471055) and Supplements (Lot No 472M013) were all obtained from PromoCell GmBH. NHEK's were thawed directly into a single T75 in 20 mls of complete KSFM (CaCl2 & Supplements), incubated over night at 37° C., 5% CO2 and the medium changed the following day. After 3 days the cells were 80% confluent and were passaged (Ist) using 0.05% Trypsin+EDTA (Gibco) into ×2 T75 flasks at a split ratio of 1:4. After overnight incubation at 37° C., 5% CO2, the cultures were at 30% confluence and 10 μM Y27632 (Cat No 688000, Lot No 2884132, Merck) was added to one of the flasks. […] Fresh T75 flasks were seeded with 5.0×10^5 cells from each in their respective medium. […] Fresh T75 flasks were seeded, as described previously, and also 1.2×10^4 NHEK cells/well were seeded into 24 well plates, incubated overnight to allow cell attachment, and the following subsequently added to separate wells: • A. NHEK in complete KSFM • B. NHEK+Y27632 in complete KSFM • C. Y27632 treated NHEK transferred to complete KSFM (Y27632 Removed) • D. NHEK transferred to complete KSFM+500 nM Tadalafil • E. NHEK transferred to complete KSFM+750 nM Tadalafil • F. NHEK transferred to complete KSFM+1000 nM Tadalafil • G. NHEK transferred to complete KSFM+1250 nM Tadalafil • H. NHEK transferred to complete KSFM+50 nM Fenbendazole • I. NHEK transferred to complete KSFM+100 nM Fenbendazole • J. NHEK transferred to complete KSFM+150 nM Fenbendazole • K. NHEK transferred to complete KSFM+200 nM Fenbendazole All drugs were added 24 hours after seeding. […] FIG. 2B is an example of the appearance of post-confluent cells.
Post-confluent NHEK's (FIG. 2B) were subsequently passaged (4th) into a fresh 24 well plate using a split ratio of 1 in 4 in 2 mls of fresh complete KSFM. These were left overnight to attach and the same compounds added (as shown in A-K of 1.1) followed by incubation for a further 24 hours and subsequently photographed.

Assay [2] in a line: Rat 4 month medicated feed study: mortality and appetite. Format: in vivo, Sprague-Dawley rats. The source says:
Seventy-eight Sprague-Dawley rats aged either 16 or 22 months were maintained with daily 12-hour light/dark cycles and allowed constant access to feed and water. The animals were bred and housed at the Cantacuzino National Medico-Military Institute for Research and Development, Bucharest 050096, Romania. These animals were split into 3 separate groups of 26, each containing the same number of younger and older animals, which were then given the following feeds prepared by Altromin Spezialfutter GmbH & Co. for a period of 4 months: • (A) Control maintenance feed plus standard multivitamin supplement (No API's) • (B) Formulation (A) plus 80 mg/Kilo of Fenbendazole. • (C) Formulation (B) plus 12.5 mg/Kilo Tadalafil. A buccal swab was then taken from each animal using an OracollectDNA OCR-100 sampling device (DNA Genotek, Canada). DNA was extracted using a DNeasy® Blood & Tissue Kit (Qiagen UK, Cat No 69505) which was checked for purity and quantified with a QuickDrop Spectrophotometer (Molecular Devices, Model 504 7178). This material was then used to analyse relative telomere length as described in section 1.6 except that the Relative Rat Telomere Length Quantification qPCR Assay Kit (ScienCell Research Labs, Catalog No. R8908) was used. Five consecutive samples from each of the three treatment groups were analysed on each 96 well PCR plate to minimize any inter-plate variability.

Assay [3] in a line: Rat 4 month medicated feed study: relative telomere length in buccal swab DNA (qPCR). Format: in vivo, Sprague-Dawley rats. Conditions: buccal swabs after 4 months feed; control 1.37 (SD=0.38). From the text: Seventy-eight Sprague-Dawley rats aged either 16 or 22 months were maintained with daily 12-hour light/dark cycles and allowed constant access to feed and water. The animals were bred and housed at the Cantacuzino National Medico-Military Institute for Research and Development, Bucharest 050096, Romania. […] A buccal swab was then taken from each animal using an OracollectDNA OCR-100 sampling device (DNA Genotek, Canada). DNA was extracted using a DNeasy® Blood & Tissue Kit (Qiagen UK, Cat No 69505) which was checked for purity and quantified with a QuickDrop Spectrophotometer (Molecular Devices, Model 504 7178). […] R8908) was used. Five consecutive samples from each of the three treatment groups were analysed on each 96 well PCR plate to minimize any inter-plate variability.
Background: In qPCR the cycle at which signal appears reflects the starting amount.

What is called mortality is the percentage killed. `COC(=O)Nc1nc2ccc(Sc3ccccc3)cc2[nH]1` [Fenbendazole, methyl 5-(phenylthio)-2-benzimidazole carbamate]: the “relative telomere loss per population doubling” value with NHEK cells is “greatest reduction”. In assay [1] (passage 4, 24 hours with compound, 10 μM Y27632, 500-1250 nM Tadalafil, 50-200 nM Fenbendazole, FIG. 3), the “continued growth of post-confluent NHEK's (phase contrast)” value is listed as “all exhibited cell growth”. In addition, the “concentration causing optimal cell growth” value lay in the range of 100 to 150 nM in assay [1] (cultured for a further 24 hrs, FIG. 4) and 100 to 150 nM in assay [1] (passage 4, 24 hours, FIG. 3). Also, the appetite versus control entry in assay [2] (4 months medicated feed) is on record as “greater”. In addition, the surviving animals in assay [2] (after 4 months of medicated feed, groups of 26 rats aged 16 or 22 months, control 18) is 23. This compound also yielded a mortality in assay [2] (after 4 months of medicated feed, control 30.7%) of 11.5%. The “average telomere length, times that in DNA from a 30 month old comparator” value in assay [3] is 1.59 (SD=0.48).
